{"source": "patent US10206898B2", "about": "“Compositions and methods for treating or preventing obesity in a subject in need thereof” (Amarin Pharmaceuticals Ireland Limited, priority 2013, dated 2019)", "tested_on": "patients with fasting triglyceride levels ≥200 mg/dl and <500 mg/dl despite statin therapy", "assay": "12-week placebo-controlled, randomized, double-blind study: lipoprotein particle concentrations", "format": "in vivo, human", "procedure": "A multi-center, placebo-controlled, randomized, double-blind, 12-week study was performed to evaluate the efficacy and safety of >96% E-EPA in patients with fasting triglyceride levels ≥200 mg/dl and <500 mg/dl despite statin therapy (the mean of two qualifying entry values needed to be ≥185 mg/dl and at least one of the values needed to be ≥200 mg/dl). The primary objective of the study was to determine the efficacy of >96% E-EPA 2 g daily and 4 g daily, compared to placebo, in lowering fasting TG levels in patients with high risk for cardiovascular disease and with fasting TG levels ≥200 mg/dl and <500 mg/dl, despite treatment to LDL-C goal on statin therapy. The population for this study was men and women >18 years of age with a body mass index ≤45 kg/m^2 with fasting TG levels greater than or equal to 200 mg/dl and less than 500 mg/dl and on a stable does of statin therapy (with or without ezetimibe). The statin was atorvostatin, rosuvastatin or simvastatin. The dose of statin must have been stable for ≥4 weeks prior to the LDL-C/TG baseline qualifying measurement for randomization. The statin dose was optimized such that the patients are at their LDL-C goal at the LDL-C/TG baseline qualifying measurements. The same statin at the same dose was continued until the study ended. Approximately 702 patients were randomized at approximately 80 centers in the U.S. The study was a 18- to 20-week, Phase 3, multi-center study consisting of 2 study periods: (1) A 6- to 8-week screening period that included a diet and lifestyle stabilization, a non-statin lipid-altering treatment washout, and an LDL-C and TG qualifying period and (2) A 12-week, double-blind, randomized, placebo-controlled treatment period. After confirmation of qualifying fasting LDL-C and TG values, eligible patients entered a 12-week, randomized, double-blind treatment period. At Visit 4 (Week 0), patients were randomly assigned to 1 of the following treatment groups: • >96% E-EPA 2 g daily, • >96% E-EPA 4 g daily, or • Placebo. Eligible patients were randomly assigned at Visit 4 (Week 0) to receive orally >96% E-EPA 2 g daily, >96% E-EPA 4 g daily, or placebo. >96% E-EPA was provided in 1 g liquid-filled, oblong, gelatin capsules. The matching placebo capsule was filled with light liquid paraffin and contained 0 g of >96% E-EPA. >96% E-EPA capsules were to be taken with food (i.e. with or at the end of a meal). […]", "data": [{"smiles": "CC/C=C\\C/C=C\\C/C=C\\C/C=C\\C/C=C\\CCCC(=O)OCC", "note": "[Ethyl Eicosapentaenoate, ethyl eicosapentaenoate]", "values": [{"measurement": "reduction of median concentrations of total HDL over baseline when adjusted for placebo", "setting": "4 g per day, stated as a reduction (P<0.0001)", "value": 7.4, "unit": "%"}, {"measurement": "reduction of median concentrations of total LDL over baseline when adjusted for placebo", "setting": "4 g per day, stated as a reduction (P<0.01)", "value": 7.7, "unit": "%"}, {"measurement": "HDL % Change (placebo-adjusted, relative to baseline)", "setting": "4 g/day, 12 weeks, statin-treated patients, median total HDL particle concentration", "value": "−7.4", "unit": "%"}, {"measurement": "LDL % Change (placebo-adjusted, relative to baseline)", "setting": "4 g/day, 12 weeks, statin-treated patients, median total LDL particle concentration", "value": "−7.7", "unit": "%"}]}]}
